PubChem BioAssay AID1963964 (Molecular Pharmacology Branch, DTP, NCI, 2024)

Tested on: 997726-040-R-J2-PDC tumor spheroids, viability
Assay: Anticancer human tumor 997726-040-R-J2-PDC patient-derived squamous cell lung carcinoma cell line growth inhibition [PI3K]
Settings: spheroids with HUVEC and MSC; for viability, T/C: stronger effect = lower value
In short: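 Targeted small molecules plus PI3K inhibitors, half-log dose series from Cmax (default top 10 microM), were applied to heterotypic spheroids of cancer cells with HUVEC and MSCs. Viability indicated growth inhibition.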

[1] = curve of first compound, second compound 0.00316 µM
[2] = curve of first compound, second compound 0.01 µM
[3] = curve of first compound, second compound 0.0316 µM
[4] = curve of first compound, second compound 0.1 µM
[5] = curve of first compound, second compound 0.316 µM
[6] = curve of first compound, second compound 1 µM
[7] = second compound 0.00316 µM, first compound 0.0316 µM
[8] = second compound 0.00316 µM, first compound 0.1 µM
[9] = second compound 0.00316 µM, first compound 0.316 µM
[10] = second compound 0.00316 µM, first compound 1 µM
[11] = second compound 0.00316 µM, first compound 3.16 µM
[12] = second compound 0.00316 µM, first compound 10 µM
[13] = second compound 0.01 µM, first compound 0.0316 µM
[14] = second compound 0.01 µM, first compound 0.1 µM
[15] = second compound 0.01 µM, first compound 0.316 µM
[16] = second compound 0.01 µM, first compound 1 µM
[17] = second compound 0.01 µM, first compound 3.16 µM
[18] = second compound 0.01 µM, first compound 10 µM
[19] = second compound 0.0316 µM, first compound 0.0316 µM
[20] = second compound 0.0316 µM, first compound 0.1 µM
[21] = second compound 0.0316 µM, first compound 0.316 µM
[22] = second compound 0.0316 µM, first compound 1 µM
[23] = second compound 0.0316 µM, first compound 3.16 µM
[24] = second compound 0.0316 µM, first compound 10 µM
[25] = second compound 0.1 µM, first compound 0.0316 µM
[26] = second compound 0.1 µM, first compound 0.1 µM
[27] = second compound 0.1 µM, first compound 0.316 µM
[28] = second compound 0.1 µM, first compound 1 µM
[29] = second compound 0.1 µM, first compound 3.16 µM
[30] = second compound 0.1 µM, first compound 10 µM
[31] = second compound 0.316 µM, first compound 0.0316 µM
[32] = second compound 0.316 µM, first compound 0.1 µM
[33] = second compound 0.316 µM, first compound 0.316 µM
[34] = second compound 0.316 µM, first compound 1 µM
[35] = second compound 0.316 µM, first compound 3.16 µM
[36] = second compound 0.316 µM, first compound 10 µM
[37] = second compound 1 µM, first compound 0.0316 µM
[38] = second compound 1 µM, first compound 0.1 µM
[39] = second compound 1 µM, first compound 0.316 µM
[40] = second compound 1 µM, first compound 1 µM
[41] = second compound 1 µM, first compound 3.16 µM
[42] = second compound 1 µM, first compound 10 µM
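Note: spheroids exposed to compounds for seven days before readout.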

For `Cn1nccc1Nc1nccc(-c2ccn(C(CO)c3ccc(Cl)c(F)c3)c(=O)c2)n1` (stereo not given) + COc1c(OCCCN2CCOCC2)ccc2c3n(c(=NC(=O)c4cnc(N)nc4)nc12)CCN3, the IC50 [1] was 299 nM, the IC50 [2] was 40.8 nM and the IC50 [3] was less than 31.6 nM. For the same compound, the IC50 [4] was less than 31.6 nM, the IC50 [5] was less than 31.6 nM and the IC50 [6] was less than 31.6 nM. It also gave a viability, T/C [7] of 70.4%, a viability, T/C [8] of 66.3% and a viability, T/C [9] of 49.1%. It also gave a viability, T/C [10] of 51.9%, a viability, T/C [11] of 44.8% and a viability, T/C [12] of 49.8%. For the same compound, the viability, T/C [13] was 52%, the viability, T/C [14] was 47.7% and the viability, T/C [15] was 40.3%. The viability, T/C [16] was 43.9%, the viability, T/C [17] was 42.1% and the viability, T/C [18] was 34.2%. It also gave a viability, T/C [19] of 37.3%, a viability, T/C [20] of 35.5% and a viability, T/C [21] of 26.8%. It also gave a viability, T/C [22] of 27.5%, a viability, T/C [23] of 27.3% and a viability, T/C [24] of 25.2%. The viability, T/C [25] was 20.4%, the viability, T/C [26] was 20.2% and the viability, T/C [27] was 18.3%. For the same compound, the viability, T/C [28] was 19%, the viability, T/C [29] was 20% and the viability, T/C [30] was 11.8%. For the same compound, the viability, T/C [31] was 5.76%, the viability, T/C [32] was 4.79% and the viability, T/C [33] was 5.29%. For the same compound, the viability, T/C [34] was 3.62%, the viability, T/C [35] was 3.85% and the viability, T/C [36] was 0.65%. For the same compound, the viability, T/C [37] was 0.97%, the viability, T/C [38] was 1.38% and the viability, T/C [39] was 1.3%. It also gave a viability, T/C [40] of 0.75%, a viability, T/C [41] of 0.59% and a viability, T/C [42] of 0.31%.
For `CC1(C)CCC(CN2CCN(c3ccc(C(=O)NS(=O)(=O)c4ccc(NCC5CCOCC5)c([N+](=O)[O-])c4)c(Oc4cnc5[nH]ccc5c4)c3)CC2)=C(c2ccc(Cl)cc2)C1`, the viability, T/C (compound 0.0316 µM) was 98.4% [middle of 4 runs], the viability, T/C (compound 0.1 µM) was 95.7% [middle of 4 runs] and the viability, T/C (compound 1 µM) was 102% [middle of 4 runs]. For the same compound, the viability, T/C (compound 3.16 µM) was 98.8% [middle of 4 runs], the viability, T/C (compound 10 µM) was 42.4% [middle of 4 runs] and the IC50 (curve of compound) was 8.5 µM [middle of 4 runs].
`CC(Cn1ccc(-c2ccc(C#N)c(Cl)c2)n1)NC(=O)c1cc(C(C)O)[nH]n1` (stereo not given) + CC(Nc1ccc2c(c1)OCCn1cc(N3C(=O)OCC3C(F)F)nc1-2)C(N)=O showed an IC50 [1] greater than 10000 nM, an IC50 [2] greater than 10000 nM and an IC50 [3] greater than 10000 nM. For the same compound, the IC50 [4] was less than 31.6 nM, the IC50 [5] was less than 31.6 nM and the IC50 [6] was less than 31.6 nM. For the same compound, the viability, T/C [7] was 85.8%, the viability, T/C [8] was 88.3% and the viability, T/C [9] was 89.4%. It also gave a viability, T/C [10] of 91.4%, a viability, T/C [11] of 97.3% and a viability, T/C [12] of 85.4%. The viability, T/C [13] was 78.3%, the viability, T/C [14] was 81% and the viability, T/C [15] was 80%. It also gave a viability, T/C [16] of 84.5%, a viability, T/C [17] of 84.1% and a viability, T/C [18] of 89.4%. It also gave a viability, T/C [19] of 61.1%, a viability, T/C [20] of 70.2% and a viability, T/C [21] of 67.3%. It also gave a viability, T/C [22] of 62.6%, a viability, T/C [23] of 63.8% and a viability, T/C [24] of 64.7%. For the same compound, the viability, T/C [25] was 48.5%, the viability, T/C [26] was 45.5% and the viability, T/C [27] was 54.1%. It also gave a viability, T/C [28] of 51.4%, a viability, T/C [29] of 47.3% and a viability, T/C [30] of 48.2%. It also gave a viability, T/C [31] of 39%, a viability, T/C [32] of 32.9% and a viability, T/C [33] of 32.8%. The viability, T/C [34] was 33.7%, the viability, T/C [35] was 35.8% and the viability, T/C [36] was 31.5%. The viability, T/C [37] was 31.1%, the viability, T/C [38] was 26.7% and the viability, T/C [39] was 26.6%. For the same compound, the viability, T/C [40] was 30.5%, the viability, T/C [41] was 28.6% and the viability, T/C [42] was 24.5%.
